# In US7745450B2, “Pyrazolo[4,3-d]pyrimidines, processes for their preparation and methods for therapy” (Institute of Experimental Botany, priority 2002, dated 2010):
# Like-named read-outs stand apart in the source and are kept apart here.
# Legend:
# cdk1/cyclin B (CDC2) = cdk1/cyclin B (CDC2) (Homo sapiens, UniProt P06493); assay: CDK inhibition assay, cdk1/cyclin B (CDC2) kinase, histone phosphorylation; assay type: biochemical
# Description: Selected compounds were tested for cdk1/cyclin B and cdk2/cyclin E inhibitory activity to determine the basic relationships between their interaction energy of docked complex and the inhibitory activity. Cdk2/cyclin E complex was produced in SIP insect cells co-infected with appropriate baculoviral construct. The cells were harvested 70 hours post infection in lysis buffer (50 mM Tris 7.4 pH, 150 mM NaCl, 5 mM EDTA, 20 mM NaF, 1% Tween 20, protease inhibitors) for 30 min on ice and the soluble fraction was recovered by centrifugation at 14.000 g for 10 min. The protein extract was stored at −80° C. until use. The final point test system for kinase activity measurement was used to carry out experiments on the kinetics under linear conditions. The assay mixture contained 1 mg/ml histone (Sigma Type III-S), 15 μM ATP, 0.2 μCi [γ-^32P] ATP and tested compound in a final volume of 20 μl, all in reaction buffer: 50 mM Hepes 7.4 pH, 10 mM MgCl2, 5 mM EGTA, 10 mM 2-glycerolphosphate, 1 mM NaF, 1 mM DTT and protease inhibitors. […] The measurement of kinase inhibition employed the digital imaging analyzer BAS 1800. The kinase activity was expressed as a percentage of maximum activity and the IC50 value was determined by graphic analysis. The kinase activity is expressed as a percentage of maximum activity, the apparent inhibition constants are determined by graphic analysis from dose-response curves presented on FIG. 1.
# IκB-α kinase = IκB-α kinase inhibition, in vitro kinase assay; assay type: biochemical
# [1] = system: Cytokinin-dependent tobacco callus Nicotiana tabacum L. cv. Wisconsins 38; assay: Tobacco callus bioassay for cytotoxicity (herbicidal activity); assay type: cell-based
# Description: The novel compounds have also been tested in tobacco callus bioassay for cytotoxicity (herbicidal activity) and induction of cell death. The compounds to be tested were dissolved in dimethylsulfoxide (DMSO) and the solution brought up to 10^−3 M with distilled water. […] Cytokinin-dependent tobacco callus Nicotiana tabacum L. cv. Wisconsins 38 Murashige-Skoog medium, containing per 1 liter: 4 μmol nicotinic acid, 2.4 μmol pyridoxine hydrochloride, 1.2 μmol thiamine, 26.6 μmol glycine, 1.37 μmol glutamine, 1.8 μmol myo.inositol, 30 g of sucrose, 8 g of agar, […] α-naphthylacetic acid and 0.5 μmol 6-benzylaminopurine. Sub cultivation was carried out every three weeks. Fourteen days before the bioassay, the callus tissue was transferred to the media without 6-benzylaminopurine. Compounds were tested with two different concentrations of 6-benzylaminopurine (10^−5 M and 10^−6 M). Inhibitory growth activity was determined from the increase in fresh callus weight after four weeks of cultivation. Five replicates were prepared for each concentration tested and the entire test was repeated at least twice.
# [2] = Nicotiana tabacum, 672 h, read-out: 10^−5 M BAP IC50, 10^−5 M 6-benzylaminopurine, four weeks
# [3] = Nicotiana tabacum, 672 h, read-out: 10^−6 M BAP IC50, 10^−6 M 6-benzylaminopurine, four weeks
# Sequence of cdk1/cyclin B (CDC2) (P06493 whole entry, species assumed): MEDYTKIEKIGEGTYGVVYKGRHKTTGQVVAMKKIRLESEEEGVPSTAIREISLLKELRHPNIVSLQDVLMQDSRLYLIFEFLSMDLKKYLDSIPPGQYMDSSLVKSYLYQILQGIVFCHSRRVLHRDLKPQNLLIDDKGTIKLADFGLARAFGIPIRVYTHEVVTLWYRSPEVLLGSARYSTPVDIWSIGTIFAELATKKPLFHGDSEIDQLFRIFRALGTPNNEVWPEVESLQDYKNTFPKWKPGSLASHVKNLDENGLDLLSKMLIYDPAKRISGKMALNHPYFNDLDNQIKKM
# Sequence of cdk1/cyclin B (CDC2) (P14635 whole entry partner, species assumed): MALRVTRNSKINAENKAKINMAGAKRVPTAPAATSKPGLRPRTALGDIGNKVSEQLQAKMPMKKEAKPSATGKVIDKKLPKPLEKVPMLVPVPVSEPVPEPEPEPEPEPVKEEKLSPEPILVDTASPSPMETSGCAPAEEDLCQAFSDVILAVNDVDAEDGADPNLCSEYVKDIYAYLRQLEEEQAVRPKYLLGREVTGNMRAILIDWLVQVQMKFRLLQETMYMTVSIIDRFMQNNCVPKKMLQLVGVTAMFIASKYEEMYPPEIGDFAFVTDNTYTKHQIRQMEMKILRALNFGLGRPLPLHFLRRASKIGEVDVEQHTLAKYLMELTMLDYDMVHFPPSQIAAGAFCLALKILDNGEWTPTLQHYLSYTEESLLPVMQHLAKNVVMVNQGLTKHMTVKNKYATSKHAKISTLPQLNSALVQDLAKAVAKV
IC50 (cdk1/cyclin B (CDC2)) [µM],IC50 (IκB-α kinase) [µM],SMILES,"IC50 [1, 2] [µM]","IC50 [1, 3] [µM]","IC50 ([1]; read-out: 10^−5 M BAP IC50, 10^−5 M 6-benzylaminopurine, four weeks) [µM]"
0.01,0.02,CC(C)c1n[nH]c2c(NCc3ccccc3)nc(NC3CCCCC3N)nc12 (stereo not drawn),> 50,36,–
0.14,0.25,CC(C)c1n[nH]c2c(Nc3cccc(Cl)c3)nc(NCCN)nc12,> 50,48,–
0.1,0.3,CC[C@H](CO)Nc1nc(NCc2ccccc2)c2[nH]nc(C)c2n1,> 50,37,–
0.004,–,CC[C@H](CO)Nc1nc(Nc2cccc(Cl)c2)c2[nH]nc(C(C)C)c2n1,45,–,> 50
0.002,0.01,CC[C@H](CO)Nc1nc(Nc2ccc(Br)cc2)c2[nH]nc(C(C)C)c2n1,38,4.3,–
0.008,0.015,CC(C)c1n[nH]c2c(Nc3cc(N)cc(Cl)c3)nc(N[C@@H](CO)C(C)C)nc12,38,4.2,–
0.02,0.05,Cc1n[nH]c2c(NCc3ccccc3)nc(NC3CCC(N)CC3)nc12 (stereo not drawn),> 50,43,–
0.02,0.08,CC(C)c1n[nH]c2c(Nc3cccc(Cl)c3)nc(NCCCN)nc12,> 50,45,–
0.0005,0.001,CC(C)c1n[nH]c2c(Nc3ccc(Cl)cc3)nc(N[C@@H](CO)C(C)C)nc12,24,2.3,–
0.002,0.003,CC(C)c1n[nH]c2c(NCc3ccc(Cl)c(N)c3)nc(N[C@@H](CO)C(C)C)nc12,> 50,19.4,–
0.001,0.012,CC(C)c1n[nH]c2c(Nc3cccc(Cl)c3)nc(NC3CCC(N)CC3)nc12 (stereo not drawn),> 50,25,–
0.2,0.4,Cc1n[nH]c2c(NCc3ccccc3)nc(NCCCN)nc12 [3-aminopropylamino; benzylamino; methyl],> 50,45,–
0.004,0.01,CC(C)c1n[nH]c2c(NCc3ccccc3)nc(N[C@@H](CO)C(C)C)nc12,> 50,14,–
0.002,0.003,CC(C)c1n[nH]c2c(Nc3ccc(Br)cc3)nc(N[C@@H](CO)C(C)C)nc12,> 50,> 50,–
0.006,0.014,CC[C@H](CO)Nc1nc(NCc2cccc(C)c2O)c2[nH]nc(C(C)C)c2n1,> 50,12.3,–
0.001,0.002,CC(C)c1n[nH]c2c(Nc3ccc(Cl)c(N)c3)nc(N[C@@H](CO)C(C)C)nc12,25,1.8,–
0.001,0.003,CC(C)c1n[nH]c2c(Nc3ccccc3)nc(N[C@@H](CO)C(C)C)nc12,42,4.8,–
0.001,0.002,Cc1cccc(CNc2nc(N[C@@H](CO)C(C)C)nc3c(C(C)C)n[nH]c23)c1O,> 50,10.7,–
0.004,0.009,CC(C)c1n[nH]c2c(Nc3cccc(Cl)c3)nc(N[C@@H](CO)C(C)C)nc12,> 50,11,–
0.002,0.003,CC(C)c1n[nH]c2c(Nc3ccc(N)c(Cl)c3)nc(N[C@@H](CO)C(C)C)nc12,16,0.9,–
0.02,0.11,CC[C@H](CO)Nc1nc(Nc2ccccc2)c2[nH]nc(C(C)C)c2n1,48,6.2,–
0.005,–,"CC(C)c1n[nH]c2c(NCc3ccccc3)nc(NC3CCC(N)CC3)nc12 (stereo not drawn) [Compound 268, 3-isopropyl-5-(4-aminocyclohexylamino)-7-benzylamino-pyrazolo[4,3-d]pyrimidine]",> 50,32,–
0.004,0.013,CC[C@H](CO)Nc1nc(Nc2ccc(Cl)c(N)c2)c2[nH]nc(C(C)C)c2n1,26,1.5,–
0.006,0.012,CC(=O)Oc1ccccc1CNc1nc(N[C@@H](CO)C(C)C)nc2c(C(C)C)n[nH]c12,38,4.2,–
0.01,0.02,Cc1n[nH]c2c(NCc3ccccc3)nc(N[C@@H](CO)C(C)C)nc12,> 50,28,–
0.006,0.015,COc1cccc(CNc2nc(N[C@@H](CO)C(C)C)nc3c(C(C)C)n[nH]c23)c1O,> 50,21.6,–
0.007,0.012,CC[C@H](CO)Nc1nc(NCc2cccc(Cl)c2O)c2[nH]nc(C(C)C)c2n1,46,6.7,–

IC50 (cdk1/cyclin B (CDC2)) [µM],IC50 (IκB-α kinase) [µM],SMILES,"IC50 [1, 2] [µM]","IC50 [1, 3] [µM]","IC50 ([1]; read-out: 10^−5 M BAP IC50, 10^−5 M 6-benzylaminopurine, four weeks) [µM]"
0.001,0.002,CC[C@H](CO)Nc1nc(Nc2ccc(Cl)c(C(=O)O)c2)c2[nH]nc(C(C)C)c2n1,28,1.5,–
0.004,0.02,CC[C@H](CO)Nc1nc(Nc2cc(N)cc(Cl)c2)c2[nH]nc(C(C)C)c2n1,36,2.8,–
0.01,0.03,Cc1cccc(CNc2nc(NCCO)nc3c(C)n[nH]c23)c1O,–,–,–
0.2,0.4,Cc1n[nH]c2c(NC(CO)c3ccccc3)nc(NCCO)nc12 (racemic),–,–,–
0.003,0.011,CC[C@H](CO)Nc1nc(NCc2ccc(Cl)c(O)c2O)c2[nH]nc(C(C)C)c2n1,–,–,–
0.004,0.009,COc1cc(O)c(CNc2nc(NCCO)nc3c(C)n[nH]c23)c(O)c1,–,–,–
0.08,0.2,CC(C)c1n[nH]c2c(Nc3cccc(Cl)c3)nc(NCCCO)nc12,–,–,–
0.0004,0.0012,COc1ccc(CNc2nc(N[C@@H](CO)C(C)C)nc3c(C(C)C)n[nH]c23)c(O)c1O,–,–,–
0.5,1.1,CC[C@H](CO)Nc1nc(NCc2ccc(O)c(O)c2)c2[nH]nc(C(C)C)c2n1,–,–,–
0.09,0.15,CC(C)c1n[nH]c2c(N(C)CCc3ccc(O)c(O)c3)nc(N[C@@H](CO)C(C)C)nc12,–,–,–
0.009,0.023,Cc1n[nH]c2c(Nc3ccc(Cl)c(N)c3)nc(NCCO)nc12,–,–,–
0.11,0.28,CC(C)c1n[nH]c2c(Nc3cccc(Cl)c3)nc(NCCO)nc12,–,–,–
0.4,1.1,CC(C)c1n[nH]c2c(NCc3ccccc3)nc(N(CCO)CCO)nc12,–,–,–
0.009,0.021,Cc1n[nH]c2c(NCc3ccc(Cl)c(O)c3O)nc(NCCO)nc12,–,–,–
0.002,0.005,CC[C@H](CO)Nc1nc(NCc2ccc(OC)c(O)c2O)c2[nH]nc(C(C)C)c2n1,–,–,–
0.0008,0.001,CC(C)c1n[nH]c2c(NCc3cc(O)c(Cl)cc3O)nc(N[C@@H](CO)C(C)C)nc12,–,–,–
0.008,0.012,CC[C@H](CO)Nc1nc(NCc2ccccc2O)c2[nH]nc(C(C)C)c2n1,–,–,–
0.01,0.02,Cc1n[nH]c2c(Nc3cc(N)cc(Cl)c3)nc(NCCO)nc12,–,–,–
0.005,0.015,CC[C@H](CO)Nc1nc(NCc2ccccc2C(C)=O)c2[nH]nc(C(C)C)c2n1,–,–,–
0.02,0.05,CC(=O)c1ccccc1CNc1nc(N[C@@H](CO)C(C)C)nc2c(C(C)C)n[nH]c12,–,–,–
0.09,0.19,CC(C)c1n[nH]c2c(Nc3cccc(Cl)c3)nc(N(CCO)CCO)nc12,–,–,–
0.008,0.02,Cc1n[nH]c2c(Nc3ccc(Br)cc3)nc(NCCO)nc12,–,–,–
0.01,0.05,CC(=O)c1ccccc1CNc1nc(NCCO)nc2c(C)n[nH]c12,–,–,–
0.7,1.8,Cc1n[nH]c2c(NCc3ccccc3)nc(NCCCO)nc12,–,–,–
0.03,0.11,CC(C)c1n[nH]c2c(N(C)Cc3ccc(O)c(O)c3)nc(N[C@@H](CO)C(C)C)nc12,–,–,–
0.0006,0.0015,COc1cc(O)c(CNc2nc(N[C@@H](CO)C(C)C)nc3c(C(C)C)n[nH]c23)cc1O,–,–,–
